Two molecules from paper PMC7237647, “Synthesis, in vitro and in vivo evaluation of ^11C-O-methylated arylpiperazines as potential serotonin 1A (5-HT1A) receptor antagonist radiotracers” (EJNMMI Radiopharmacy and Chemistry, 2020) can be followed below.

Some results are limits rather than exact numbers.

A word on the Ki: it is the dissociation constant of the complex between target and ligand, obtained from inhibition or displacement.

For test [1], the target named is T1, 5-HT1A receptor (Homo sapiens, UniProt P08908).
T1 sequence (P08908 1-422): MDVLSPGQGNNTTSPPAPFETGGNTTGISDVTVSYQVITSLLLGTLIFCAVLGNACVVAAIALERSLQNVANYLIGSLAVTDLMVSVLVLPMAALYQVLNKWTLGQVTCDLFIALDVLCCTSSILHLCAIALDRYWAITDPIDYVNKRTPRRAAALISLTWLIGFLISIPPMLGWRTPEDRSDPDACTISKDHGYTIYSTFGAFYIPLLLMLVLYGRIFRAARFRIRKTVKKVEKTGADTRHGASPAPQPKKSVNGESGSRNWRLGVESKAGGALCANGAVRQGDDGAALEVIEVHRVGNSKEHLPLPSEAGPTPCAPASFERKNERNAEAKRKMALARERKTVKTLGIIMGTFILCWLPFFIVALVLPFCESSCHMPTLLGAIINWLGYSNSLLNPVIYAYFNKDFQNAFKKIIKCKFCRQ
In words: Competition binding with [^3H]WAY100635 at 5-HT1A receptors (NIMH-PDSP). The following applies: for Ki: competition with [^3H]WAY100635, 12 concentrations (10 μM to 1 pM), triplicate, cells expressing 5-HT1A receptor; for Binding affinity ratios of 5-HT1A and α1-adrenergic receptors: in vitro Ki ratio.

The target of test [2] is T2, 5-HT2A (Homo sapiens, UniProt P28223).
T2 construct: NIMH-PDSP
In words: NIMH-PDSP radioligand binding assay, 5-HT2A.

Test [3] has as its target T3, 5-HT2C (Homo sapiens, UniProt P28335).
T3 construct: NIMH-PDSP
T3 sequence (P28335 33-458): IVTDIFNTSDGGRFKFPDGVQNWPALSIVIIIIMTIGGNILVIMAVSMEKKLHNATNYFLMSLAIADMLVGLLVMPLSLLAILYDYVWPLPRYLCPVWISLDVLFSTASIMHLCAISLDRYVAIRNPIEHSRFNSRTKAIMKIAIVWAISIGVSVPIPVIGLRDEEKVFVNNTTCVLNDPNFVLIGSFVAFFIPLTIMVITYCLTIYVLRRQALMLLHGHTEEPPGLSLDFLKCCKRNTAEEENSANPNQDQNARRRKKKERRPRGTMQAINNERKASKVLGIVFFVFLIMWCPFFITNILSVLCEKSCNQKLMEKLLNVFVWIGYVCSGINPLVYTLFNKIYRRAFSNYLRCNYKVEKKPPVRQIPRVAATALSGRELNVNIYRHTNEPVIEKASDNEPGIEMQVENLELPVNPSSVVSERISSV
In words: NIMH-PDSP radioligand binding assay, 5-HT2C.

Test [4] has as its target T4, 5-HT3 (Homo sapiens, UniProt P46098).
T4 construct: NIMH-PDSP
T4 sequence (P46098 24-478): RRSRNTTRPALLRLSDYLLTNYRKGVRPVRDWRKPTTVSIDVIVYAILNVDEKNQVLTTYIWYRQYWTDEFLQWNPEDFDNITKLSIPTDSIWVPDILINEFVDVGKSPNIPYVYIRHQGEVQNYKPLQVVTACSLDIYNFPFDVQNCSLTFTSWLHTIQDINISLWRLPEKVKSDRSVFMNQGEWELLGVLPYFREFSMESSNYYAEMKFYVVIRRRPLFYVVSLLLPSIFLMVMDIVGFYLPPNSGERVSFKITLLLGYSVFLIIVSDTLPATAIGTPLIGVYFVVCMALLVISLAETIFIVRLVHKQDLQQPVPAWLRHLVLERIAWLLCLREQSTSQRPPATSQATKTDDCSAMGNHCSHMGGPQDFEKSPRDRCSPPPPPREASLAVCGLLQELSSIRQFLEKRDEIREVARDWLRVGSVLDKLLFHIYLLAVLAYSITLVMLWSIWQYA
In words: NIMH-PDSP radioligand binding assay, 5-HT3. Here is the method: (§1) . Cross selectivity for biogenic amines, neurotransmitter receptors, and transporters were determined by radioligand binding assays through NIMH- PDSP using validated and established protocols ([NIMH-PDSP Assay Protocol Book Version III, March 2018]).

The target in test [5] is T5, 5-HT4 (Homo sapiens, UniProt Q13639).
T5 construct: NIMH-PDSP
In words: NIMH-PDSP radioligand binding assay, 5-HT4. Here is the method: as §1

For test [6], the target named is T6, 5-HT6 (Homo sapiens, UniProt P50406).
T6 construct: NIMH-PDSP
In words: NIMH-PDSP radioligand binding assay, 5-HT6. On the procedure: as §1

Test [7] concerns the target T7, 5-HT7R (Homo sapiens, UniProt P34969).
T7 construct: NIMH-PDSP
In words: NIMH-PDSP radioligand binding assay, 5-HT7R.

Test [8] addresses T8, Alpha1A (Homo sapiens, UniProt P35348).
T8 construct: NIMH-PDSP
In words: NIMH-PDSP radioligand binding assay, Alpha1A. The following applies: text b29 calls it α1-adrenergic receptors.

The target in test [9] is T9, Alpha1B (Homo sapiens, UniProt P35368).
T9 construct: NIMH-PDSP
In words: NIMH-PDSP radioligand binding assay, Alpha1B.

Test [10] has as its target T10, Alpha1D (Homo sapiens, UniProt P25100).
T10 construct: NIMH-PDSP
In words: NIMH-PDSP radioligand binding assay, Alpha1D.

Test [11] addresses T11, Alpha 2A (Homo sapiens, UniProt P08913).
T11 construct: NIMH-PDSP
In words: NIMH-PDSP radioligand binding assay, Alpha 2A.

For test [12], the target named is T12, Alpha2B (Homo sapiens, UniProt P18089).
T12 construct: NIMH-PDSP
In words: NIMH-PDSP radioligand binding assay, Alpha2B.

For test [13], the target named is T13, Alpha2C (Homo sapiens, UniProt P18825).
T13 construct: NIMH-PDSP
In words: NIMH-PDSP radioligand binding assay, Alpha2C.

Test [14] concerns the target T14, D4R (Homo sapiens, UniProt P21917).
T14 construct: NIMH-PDSP
T14 sequence (P21917 1-419): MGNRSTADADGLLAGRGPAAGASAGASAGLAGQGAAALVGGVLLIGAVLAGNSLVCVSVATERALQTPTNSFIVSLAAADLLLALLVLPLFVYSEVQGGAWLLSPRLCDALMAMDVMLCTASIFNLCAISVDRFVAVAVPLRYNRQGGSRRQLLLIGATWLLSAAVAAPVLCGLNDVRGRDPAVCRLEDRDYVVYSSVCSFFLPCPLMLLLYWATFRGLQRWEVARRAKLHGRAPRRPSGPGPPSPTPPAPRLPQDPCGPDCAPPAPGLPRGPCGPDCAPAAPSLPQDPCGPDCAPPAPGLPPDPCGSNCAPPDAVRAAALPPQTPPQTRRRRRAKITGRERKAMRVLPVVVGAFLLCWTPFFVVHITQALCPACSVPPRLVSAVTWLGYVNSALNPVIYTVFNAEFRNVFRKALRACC
In words: NIMH-PDSP radioligand binding assay, D4R. On the procedure: as §1

Test [15] concerns the target D1, D5. In words: NIMH-PDSP radioligand binding assay, D1, D5.
Test [16] addresses NET (Homo sapiens, UniProt P23975). In words: NIMH-PDSP radioligand binding assay, NET. On the procedure: as §1
The target in test [17] is AMPA. In words: NIMH-PDSP radioligand binding assay, AMPA.
Test [18] concerns the target Beta Receptors. In words: NIMH-PDSP radioligand binding assay, Beta Receptors.
Test [19] concerns the target CB1, CB2. In words: NIMH-PDSP radioligand binding assay, CB1, CB2.
For test [20], the target named is DOR, KOR, MOR. In words: NIMH-PDSP radioligand binding assay, DOR, KOR, MOR.
Test [21] deals with T15, Sigma1R (Homo sapiens, UniProt Q99720).
T15 construct: NIMH-PDSP
In words: NIMH-PDSP radioligand binding assay, Sigma1R. Here is the method: as §1

T11 sequence (P08913 whole entry): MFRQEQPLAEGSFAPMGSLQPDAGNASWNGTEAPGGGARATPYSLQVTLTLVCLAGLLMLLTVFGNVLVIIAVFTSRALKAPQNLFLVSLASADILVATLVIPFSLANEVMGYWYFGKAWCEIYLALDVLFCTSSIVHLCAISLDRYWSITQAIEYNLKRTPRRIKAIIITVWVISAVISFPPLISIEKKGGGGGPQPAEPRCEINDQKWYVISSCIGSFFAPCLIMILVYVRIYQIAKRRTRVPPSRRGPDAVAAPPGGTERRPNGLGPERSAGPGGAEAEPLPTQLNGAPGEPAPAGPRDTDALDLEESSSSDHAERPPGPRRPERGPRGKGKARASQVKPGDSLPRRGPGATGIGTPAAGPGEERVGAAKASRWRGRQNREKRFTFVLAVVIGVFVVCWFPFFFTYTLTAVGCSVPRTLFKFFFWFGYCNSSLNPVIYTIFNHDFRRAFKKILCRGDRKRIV
Chain of NET (P23975 whole entry): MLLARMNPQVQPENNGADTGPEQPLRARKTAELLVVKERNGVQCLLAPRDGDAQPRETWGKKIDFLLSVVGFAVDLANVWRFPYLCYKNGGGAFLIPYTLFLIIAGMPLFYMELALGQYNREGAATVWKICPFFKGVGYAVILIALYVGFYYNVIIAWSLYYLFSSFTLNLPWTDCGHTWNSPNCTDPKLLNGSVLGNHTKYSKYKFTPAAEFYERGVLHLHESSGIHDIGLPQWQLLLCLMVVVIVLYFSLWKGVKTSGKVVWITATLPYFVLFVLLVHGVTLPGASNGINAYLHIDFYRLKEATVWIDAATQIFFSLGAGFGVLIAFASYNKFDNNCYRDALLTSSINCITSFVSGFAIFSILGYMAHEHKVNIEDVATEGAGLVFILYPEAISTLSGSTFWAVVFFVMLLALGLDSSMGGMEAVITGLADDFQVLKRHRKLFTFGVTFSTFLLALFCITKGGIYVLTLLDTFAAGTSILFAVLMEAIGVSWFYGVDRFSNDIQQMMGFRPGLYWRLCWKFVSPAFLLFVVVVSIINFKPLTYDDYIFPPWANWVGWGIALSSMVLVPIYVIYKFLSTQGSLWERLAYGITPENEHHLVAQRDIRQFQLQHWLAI
T2 sequence (P28223 whole entry, species assumed): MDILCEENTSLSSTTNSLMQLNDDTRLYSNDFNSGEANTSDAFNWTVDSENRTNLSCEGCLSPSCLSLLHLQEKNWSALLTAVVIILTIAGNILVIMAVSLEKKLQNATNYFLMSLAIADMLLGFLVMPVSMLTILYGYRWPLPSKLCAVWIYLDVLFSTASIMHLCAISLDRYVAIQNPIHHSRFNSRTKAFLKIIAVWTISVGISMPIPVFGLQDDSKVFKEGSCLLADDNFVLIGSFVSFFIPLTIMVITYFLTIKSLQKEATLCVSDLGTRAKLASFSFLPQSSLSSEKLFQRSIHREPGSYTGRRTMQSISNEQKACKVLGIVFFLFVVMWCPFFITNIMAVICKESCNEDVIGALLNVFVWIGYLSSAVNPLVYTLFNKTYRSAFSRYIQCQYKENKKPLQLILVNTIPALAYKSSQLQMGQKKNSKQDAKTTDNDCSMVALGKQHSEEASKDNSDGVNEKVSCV
T6 sequence (P50406 whole entry, species assumed): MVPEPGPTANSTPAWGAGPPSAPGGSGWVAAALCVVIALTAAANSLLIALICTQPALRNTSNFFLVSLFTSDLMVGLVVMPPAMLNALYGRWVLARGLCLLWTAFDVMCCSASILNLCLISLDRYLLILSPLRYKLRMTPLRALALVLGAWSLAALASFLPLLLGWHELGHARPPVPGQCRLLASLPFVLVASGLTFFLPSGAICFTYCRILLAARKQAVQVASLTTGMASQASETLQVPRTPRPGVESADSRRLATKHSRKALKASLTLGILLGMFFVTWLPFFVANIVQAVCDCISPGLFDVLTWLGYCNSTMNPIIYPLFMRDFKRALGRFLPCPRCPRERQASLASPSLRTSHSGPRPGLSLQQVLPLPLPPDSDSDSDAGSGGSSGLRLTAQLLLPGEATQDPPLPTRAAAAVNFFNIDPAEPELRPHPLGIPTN
T9 sequence (P35368 whole entry): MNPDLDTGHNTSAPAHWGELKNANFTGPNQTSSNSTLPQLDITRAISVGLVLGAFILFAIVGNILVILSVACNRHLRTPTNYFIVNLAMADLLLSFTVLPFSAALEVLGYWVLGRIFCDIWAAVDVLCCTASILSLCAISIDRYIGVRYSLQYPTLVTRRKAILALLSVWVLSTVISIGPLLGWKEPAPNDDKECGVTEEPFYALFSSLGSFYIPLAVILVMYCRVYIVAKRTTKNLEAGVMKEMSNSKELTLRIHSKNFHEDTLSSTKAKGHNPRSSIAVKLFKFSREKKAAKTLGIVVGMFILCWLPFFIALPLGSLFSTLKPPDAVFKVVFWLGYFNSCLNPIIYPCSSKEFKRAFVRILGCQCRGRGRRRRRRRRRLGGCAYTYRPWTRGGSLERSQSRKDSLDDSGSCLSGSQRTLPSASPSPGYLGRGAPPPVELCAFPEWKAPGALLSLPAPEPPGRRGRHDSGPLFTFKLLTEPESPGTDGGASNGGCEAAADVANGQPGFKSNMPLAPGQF
T8 sequence (P35348 whole entry): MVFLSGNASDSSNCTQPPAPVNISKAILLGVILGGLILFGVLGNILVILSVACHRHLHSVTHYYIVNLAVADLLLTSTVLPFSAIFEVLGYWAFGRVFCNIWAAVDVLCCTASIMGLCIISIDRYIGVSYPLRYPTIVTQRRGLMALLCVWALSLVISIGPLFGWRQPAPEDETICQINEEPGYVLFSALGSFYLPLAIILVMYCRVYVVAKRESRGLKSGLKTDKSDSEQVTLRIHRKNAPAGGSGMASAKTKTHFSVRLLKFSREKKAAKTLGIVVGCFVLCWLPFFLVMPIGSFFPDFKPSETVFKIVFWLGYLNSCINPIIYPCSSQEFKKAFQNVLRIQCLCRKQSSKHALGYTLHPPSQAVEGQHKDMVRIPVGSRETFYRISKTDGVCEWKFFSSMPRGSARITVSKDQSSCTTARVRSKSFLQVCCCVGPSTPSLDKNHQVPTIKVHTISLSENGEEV
T10 sequence (P25100 whole entry): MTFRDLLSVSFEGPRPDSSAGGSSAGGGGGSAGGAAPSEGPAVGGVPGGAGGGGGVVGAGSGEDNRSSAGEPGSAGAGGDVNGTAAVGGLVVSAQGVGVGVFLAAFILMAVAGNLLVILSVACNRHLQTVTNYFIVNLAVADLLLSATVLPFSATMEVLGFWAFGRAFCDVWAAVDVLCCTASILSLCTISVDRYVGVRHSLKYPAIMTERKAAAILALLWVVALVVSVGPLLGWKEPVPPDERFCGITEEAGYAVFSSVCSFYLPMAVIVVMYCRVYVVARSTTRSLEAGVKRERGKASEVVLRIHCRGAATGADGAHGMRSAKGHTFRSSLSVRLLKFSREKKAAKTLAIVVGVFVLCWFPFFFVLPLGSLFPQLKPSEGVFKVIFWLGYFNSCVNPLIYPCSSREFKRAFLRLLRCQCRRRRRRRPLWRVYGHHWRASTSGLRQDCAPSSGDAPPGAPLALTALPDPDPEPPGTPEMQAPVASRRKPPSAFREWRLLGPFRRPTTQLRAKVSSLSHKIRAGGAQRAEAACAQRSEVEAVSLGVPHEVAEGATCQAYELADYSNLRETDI
T7 sequence (P34969 whole entry): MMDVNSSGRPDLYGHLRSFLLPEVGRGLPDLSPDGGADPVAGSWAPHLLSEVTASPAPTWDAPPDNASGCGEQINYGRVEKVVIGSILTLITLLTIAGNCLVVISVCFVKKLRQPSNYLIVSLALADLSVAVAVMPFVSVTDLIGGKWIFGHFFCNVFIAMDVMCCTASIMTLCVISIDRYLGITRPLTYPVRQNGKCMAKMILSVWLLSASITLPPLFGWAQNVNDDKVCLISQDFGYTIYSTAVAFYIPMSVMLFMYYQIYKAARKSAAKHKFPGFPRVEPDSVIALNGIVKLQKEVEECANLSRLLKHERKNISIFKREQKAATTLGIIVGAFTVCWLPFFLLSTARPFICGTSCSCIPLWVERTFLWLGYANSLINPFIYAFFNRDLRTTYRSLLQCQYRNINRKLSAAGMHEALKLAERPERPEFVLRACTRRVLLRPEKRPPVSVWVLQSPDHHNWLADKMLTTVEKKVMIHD
T5 sequence (Q13639 whole entry, species assumed): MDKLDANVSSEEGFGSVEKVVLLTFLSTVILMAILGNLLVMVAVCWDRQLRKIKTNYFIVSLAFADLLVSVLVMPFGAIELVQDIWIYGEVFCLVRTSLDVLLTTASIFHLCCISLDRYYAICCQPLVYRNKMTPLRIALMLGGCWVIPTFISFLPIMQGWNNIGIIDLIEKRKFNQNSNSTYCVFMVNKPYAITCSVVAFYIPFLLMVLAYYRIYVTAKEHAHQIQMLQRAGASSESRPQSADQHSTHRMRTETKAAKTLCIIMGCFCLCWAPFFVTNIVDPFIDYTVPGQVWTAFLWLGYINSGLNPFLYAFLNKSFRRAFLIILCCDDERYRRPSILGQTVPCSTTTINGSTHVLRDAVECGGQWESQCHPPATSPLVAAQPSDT
T15 sequence (Q99720 whole entry, species assumed): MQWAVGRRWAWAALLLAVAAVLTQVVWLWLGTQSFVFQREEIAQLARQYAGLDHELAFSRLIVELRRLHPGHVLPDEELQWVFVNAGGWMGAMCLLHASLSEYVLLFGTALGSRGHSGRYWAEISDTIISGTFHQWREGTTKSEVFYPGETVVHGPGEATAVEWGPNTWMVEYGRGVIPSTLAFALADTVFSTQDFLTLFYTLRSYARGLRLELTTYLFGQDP

Turning to `COc1ccccc1N1CCN(CCCN/C(=N\C#N)c2ccccn2)CC1` [Compound 1], the inhibitory constant (Ki) in test [1] is 22 nM; in test [2], more than 10000 nM; in test [3], more than 10000 nM; in test [4], more than 10000 nM; in [5], more than 10000 nM; in [6] it was more than 10000 nM. Besides, the Ki is 76 nM in test [7]; 129 nM in test [8]; 1080 nM in [9]; 213 nM in test [10]; 453 nM in [11]; 670 nM in test [12]. Besides, the Ki in [13] is 835 nM; in test [14], 137 nM; in test [15] it was more than 10000 nM; in [16] it was more than 10000 nM; in [17] it was more than 10000 nM; in [18], more than 10000 nM. The figures for the Ki in [19], in test [20] and in test [21] were more than 10000 nM, more than 10000 nM and 520 nM, respectively. Moreover, the “Binding affinity ratios of 5-HT1A and α1-adrenergic receptors” value in test [1] was ~ 6.

Turning to `COc1ccccc1N1CCN(CCNC(=O)c2ccccn2)CC1` [Compound 2], the Ki in [1] is 7.7 nM; in test [2], more than 10000 nM; in [3] it was more than 10000 nM; in [4], more than 10000 nM; in [5] it was more than 10000 nM; in [6] it was more than 10000 nM. The Ki in test [7] is 830 nM; in [8] it was 46 nM; in test [9] it was 254 nM; in [10], 53 nM; in test [11] it was more than 10000 nM; in test [12], more than 10000 nM. The inhibition constant Ki in test [13] was more than 10000 nM; in [14], 88 nM; in test [15] it was more than 10000 nM; in [16], more than 10000 nM; in test [17], more than 10000 nM; in test [18], more than 10000 nM. Also, the Ki in [19], in test [20] and in [21] was more than 10000 nM throughout. Besides, the “Binding affinity ratios of 5-HT1A and α1-adrenergic receptors” value in test [1] was ~ 6.
